{
  "source": "patent US12492163B2",
  "about": "“9H-fluorene derivatives or their pharmaceutically acceptable salts” (priority 2020, dated 2025)",
  "key": {"mGAT1": {"biological_target": "mGAT1 (Mus musculus (Mouse), UniProt P31648)", "assay": "[3H]GABA uptake inhibition, mGAT1 in HEK293 cells", "type": "cell-based", "settings": "GABA reuptake", "protocol": "Exemplary compounds according to the invention were screened at the Ludwig-Maximilian University of Munich to determine the inhibitory ability towards four mouse GAT transporters (mGAT1-mGAT4). […] The biological material was stably transfected human embryonic kidney HEK293 cells, expressing genes to the appropriate transporters. The generated radioactivity was measured with a liquid scintillation counter. […] These determinations were made according to the procedure described in detail in A. Kragler, G. Höfner, K. T. Wanner, Novel parent structures for inhibitors of the murine GABA transporters mGAT3 and mGAT4, Eur. J. Pharmacol. 519 (2005) 43-47."}, "ICR-CD1 mice": {"test_system": "ICR-CD1 mice", "assay": "Acute toxicity study in mice", "type": "in vivo, Mus musculus", "parameters": "key to Tremor / Convulsions / Hyper/Hypoventilation / Drooping eyelids / General exhaustion: mild (+); moderate (++); severe (+++)", "protocol": "The research was carried out at the Department of Toxicology and Military Pharmacy, Faculty of Military Health Sciences in Hradec Kralove, Defense University in Brno in the Czech Republic, at the Biomedical Research Center and at the Department of Clinical Biochemistry of the University Hospital Hradec Kralove in the Czech Republic. All procedures were carried out under the supervision of the Ethics Committee of the Faculty of Military Health Sciences (No. 20/19; MO 215611/2019-684800). Male and female ICR-CD1 strain of domestic mice (Mus musculus) (body weight approx. 20-25 g) were used in the research. The animals were kept in standard, appropriately sized cages, divided into groups of a maximum of 8 animals. The animals in the test groups were administered the test compound intraperitoneally (doses in the acute toxicity study: 10, 20, 40 and 60 mg/kg, dose in the study of pharmacokinetic parameters 10 mg/kg). Control groups received 1% Tween 80.\nThe study assesses the toxicity profile of the compound by observation of emerging adverse effects, biochemical parameters analysis and histopathological analysis, and determines the maximum tolerated dose (MTD). Mice were randomly assigned to experimental groups consisting of two males and two females. […] Toxic symptoms were classified as in the previous published study [J. Misik]. Weight loss or reduction in food consumption was assessed according to the FELAS classification [K. L. Chapman] for the first two hours, and then periodically for the next 46 hours. All 48-hour survivors were euthanized. Blood was collected for biochemical analysis and selected organs (kidneys and liver) were collected for histopathological examination. Venous blood was collected in heparinized tubes. Plasma was then separated (3000×g, 5 min, 4° C.) using a centrifuge. The concentration of urea and creatinine as well as the activity of alanine aminotransferase (ALT), aspartate aminotransferase (AST), alkaline phosphatase (ALP), amylase and lactate dehydrogenase (LDH) were determined in an accredited biochemical laboratory. The harvested organs: liver and kidneys were used for standard histopathological examination. Organs were fixed with 10% neutral buffered formalin, processed for histology, and stained with hematoxylin and eosin as in a previous published study [J. Pejchal]. Histopathological changes were assessed microscopically."}, "C57BL/6J mice": {"test_system": "C57BL/6J mice", "assay": "Barnes maze test (scopolamine)", "type": "in vivo, Mus musculus", "protocol": "The research was conducted at the Department of Pharmacodynamics, Faculty of Pharmacy, Jagiellonian University in Krakow. All procedures were approved by the 1st and 2nd Local Ethics Committee for Animal Experiments in Krakow (consent no. 53/2017 and 250/2019) and were performed in accordance with the applicable European Union regulation (86/609/EEC). Males of two different strains of domestic mice (Mus musculus) were used in the study: Albino Swiss CD-1 (body weight approx. 20-24 g, age approx. 6 weeks) and C57BL/6J mice (body weight approx. 18-22 g, age approx. 6 weeks). The CD-1 strain was used for the passive avoidance, spontaneous mobility and rotating rod tests, while the C57BL/6J mice were used for the Morris water maze and the Barnes' maze. The animals were kept in standard, appropriately sized cages, divided into groups with a maximum of 10 animals. The animals in the study groups in the learning phase were intraperitoneally administered the test compound 1 h before the start of the experiments (doses in the preliminary test, i.e. in the passive avoidance test: 10, 30 and 60 mg/kg), and 30 minutes later, 1 mg/kg of scopolamine subcutaneously. Two control groups were used in the tests to assess the procognitive activity of JT-3—one of them received saline and the other saline and scopolamine.\nThe test is used to study spatial (hippocampal-dependent) memory. […] Barnes' maze has 18 escape holes (escape points) evenly spaced on the outer edges of the circular platform, and only one of them leads to so-called escape box, where the mouse can hide. For the first four days (acquisition phase), the mouse was placed in the center of the maze in the starting chamber, the light was turned on, then the chamber was raised and time was started. The number of errors was also counted, i.e. how many holes the mouse approached before approaching the right hole for the first time, and the total number of errors until it entered the escape box. […] Each mouse was subjected to four trials a day.\nOn the fifth day, which is the recall phase (without administration of compounds), the box was removed from the escape hole and the total errors, the number of errors made up to the first approach of the mouse to the hole where the escape box was previously found and the latency to the first approach of the mouse were counted for 90 seconds to that hole were counted. The number of approaches to this hole and the time the mouse spent on it were also counted. On the twelfth day—“proper test” (without administration of compounds), the effect of the compound on long-term memory was assessed. The experiment was as in the recall phase; the same parameters were measured. Between the fifth and twelfth days, the animals were kept in home cages."}, "[1]": {"settings": "10 mg/kg (MTD) i.p., mouse Female1"}, "[2]": {"settings": "10 mg/kg (MTD) i.p., mouse Female2"}, "[3]": {"settings": "10 mg/kg (MTD) i.p., mouse Male1"}, "[4]": {"settings": "10 mg/kg (MTD) i.p., mouse Male2"}, "[5]": {"settings": "plasma, 10 mg/kg (MTD) i.p., 48 h"}},
  "data": [
    {"smiles": "O[C@H](CNCC1CC1)[C@H](Cc1ccccc1)NC1c2ccccc2-c2ccccc21", "note": "[JT-3, (2R,3S)-3-((9H-fluoren-9-yl)amino)-1-((cyclopropylmethyl)amino)-4-phenylbutan-2-ol]", "values": [
      {"measurement": "pIC50 (+/−SEM) mGAT1", "setting": "mGAT1", "result": 4.96},
      {"measurement": "changes in biochemical parameters (urea, creatinine, liver enzymes, ALP, amylase, LDH) compared to control", "setting": "ICR-CD1 mice; 10 mg/kg (MTD) i.p.", "result": "no statistically significant changes"},
      {"measurement": "histopathological changes (liver, kidneys)", "setting": "ICR-CD1 mice; 10 mg/kg (MTD) i.p.", "result": "only sporadic infiltration of neutrophils into the liver and adipose tissue was observed in two animals, without any signs of liver or kidney damage"},
      {"measurement": "Body weight change at 24 h (%)", "setting": "ICR-CD1 mice; [1]", "result": "−3.9", "unit": "%"},
      {"measurement": "Body weight change at 48 h (%)", "setting": "ICR-CD1 mice; [1]", "result": "−0.4", "unit": "%"},
      {"measurement": "Drooping eyelids", "setting": "ICR-CD1 mice; [1]", "result": "+"},
      {"measurement": "General exhaustion", "setting": "ICR-CD1 mice; [1]", "result": "+"},
      {"measurement": "Hyper/Hypoventilation", "setting": "ICR-CD1 mice; [1]", "result": "+"},
      {"measurement": "Tremor", "setting": "ICR-CD1 mice; [1]", "result": "+"},
      {"measurement": "Body weight change at 24 h (%)", "setting": "ICR-CD1 mice; [2]", "result": "−5.8", "unit": "%"},
      {"measurement": "Body weight change at 48 h (%)", "setting": "ICR-CD1 mice; [2]", "result": "−5.2", "unit": "%"},
      {"measurement": "Convulsions", "setting": "ICR-CD1 mice; [2]", "result": "+"},
      {"measurement": "Drooping eyelids", "setting": "ICR-CD1 mice; [2]", "result": "+"},
      {"measurement": "General exhaustion", "setting": "ICR-CD1 mice; [2]", "result": "+"},
      {"measurement": "Hyper/Hypoventilation", "setting": "ICR-CD1 mice; [2]", "result": "+"},
      {"measurement": "Tremor", "setting": "ICR-CD1 mice; [2]", "result": "++"},
      {"measurement": "Body weight change at 24 h (%)", "setting": "ICR-CD1 mice; [3]", "result": "−1.3", "unit": "%"},
      {"measurement": "Body weight change at 48 h (%)", "setting": "ICR-CD1 mice; [3]", "result": "−2.4", "unit": "%"},
      {"measurement": "General exhaustion", "setting": "ICR-CD1 mice; [3]", "result": "+"},
      {"measurement": "Hyper/Hypoventilation", "setting": "ICR-CD1 mice; [3]", "result": "+"},
      {"measurement": "Tremor", "setting": "ICR-CD1 mice; [3]", "result": "+"},
      {"measurement": "Body weight change at 24 h (%)", "setting": "ICR-CD1 mice; [4]", "result": "−1.2", "unit": "%"},
      {"measurement": "Body weight change at 48 h (%)", "setting": "ICR-CD1 mice; [4]", "result": "−0.7", "unit": "%"},
      {"measurement": "General exhaustion", "setting": "ICR-CD1 mice; [4]", "result": "+"},
      {"measurement": "Hyper/Hypoventilation", "setting": "ICR-CD1 mice; [4]", "result": "+"},
      {"measurement": "Tremor", "setting": "ICR-CD1 mice; [4]", "result": "+"},
      {"measurement": "maximum tolerated dose (MTD)", "setting": "ICR-CD1 mice; mice, i.p., doses tested 10, 20, 40 and 60 mg/kg", "result": 10, "unit": "mg/kg"},
      {"measurement": "ALP", "setting": "ICR-CD1 mice; [5]", "result": "68.4 ± 27.2", "unit": "U/L"},
      {"measurement": "ALT", "setting": "ICR-CD1 mice; [5]", "result": "29.0 ± 6.5", "unit": "U/L"},
      {"measurement": "AST", "setting": "ICR-CD1 mice; [5]", "result": "56.8 ± 6.6", "unit": "U/L"},
      {"measurement": "Amylase", "setting": "ICR-CD1 mice; [5]", "result": "2955 ± 501", "unit": "U/L"},
      {"measurement": "LDH", "setting": "ICR-CD1 mice; [5]", "result": "275 ± 94", "unit": "U/L"},
      {"measurement": "Urea", "setting": "ICR-CD1 mice; [5]", "result": "33.8 ± 8.2", "unit": "mg/dL"},
      {"measurement": "number of errors made before finding the escape site, acquisition phase", "setting": "C57BL/6J mice; 10 mg/kg i.p., days 1-4", "result": "no statistically significant differences"},
      {"measurement": "latency to find the escape site, acquisition phase vs scopolamine control", "setting": "C57BL/6J mice; 10 mg/kg i.p., fourth day of the test, p<0.05", "result": "Statistically significant differences"},
      {"measurement": "recall phase activity", "setting": "C57BL/6J mice; fifth day, 10 mg/kg i.p. on days 1-4", "result": "not active"},
      {"measurement": "number of errors made to find the escape zone vs scopolamine control", "setting": "C57BL/6J mice; twelfth day, 10 mg/kg i.p. on days 1-4, p<0.0001", "result": "the reduction in errors was also statistically significant"},
      {"measurement": "latency to find the escape zone vs scopolamine control", "setting": "C57BL/6J mice; twelfth day, 10 mg/kg i.p. on days 1-4, p<0.05", "result": "the reduction in latency was also statistically significant"}
    ]}
  ]
}
